From patent publication USRE46511E1, “Fused pyrimidine derivatives for inhibition of tyrosine kinase activity” (HANMI SCIENCE CO., LTD., priority 2010, dated 2017)
Like-named read-outs stand apart in the source and are kept apart here.

Key:
Format in all cases: cell-based
[1] = system: HCC827 (EGFR DelE746_A750); test: Inhibition test for growth of cancer cell expressing EGFR (SRB), HCC827; conditions: Homo sapiens, HCC827, 72 h, read-out: GI50 HCC827 EGFR DelE746_A750;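 note: cells in 96-well plates exposed to tenfold serial dilutions from 100 µM, fixed with trichloroacetic acid, SRB-stained, absorbance read at 540 nm, DMSO under 1%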
Procedure: (§1) A431 cell line was incubated in a high-glucose DMEM (Dulbecco's Modified Eagle's Medium) supplemented with 10% fetal bovine serum (FBS) and 1% penicillin/streptomycin (Gibco BRL), and HCC827 and NCI-H1975 cell lines were incubated in an RPMI medium supplemented with 10% FBS, 1% penicillin/streptomycin and 1% sodium pyruvate.
(§2) The cancer cell lines stored in a liquid nitrogen tank were each quickly thawed at 37° C., and centrifuged to remove the medium. The resulting cell pellet was mixed with a culture medium, incubated in a culture flask at 37° C. under 5% CO2 for 2 to 3 days, and the medium was removed. The remaining cells were washed with DPBS (Dulbecco's Phosphate Buffered Saline) and separated from the flask by using Tripsin-EDTA. […] 100 μl of the diluted cell solution was added to each well of a 96-well plate, and incubated at 37° C. under 5% CO2 for 1 day.
(§3) In case that the test compound was not soluble in DMSO, 1% HCl was added thereto and treated in a 40° C. water bath for 30 mins until a complete dissolution was attained. The DMSO solution containing test compound was diluted with a culture medium to a final concentration of 100 μM, and then diluted 10 times serially to 10^−6 μM (a final concentration of DMSO was less than 1%).
(§4) The medium was removed from each well of the 96-well plate. And then, 100 μl of a test compound solution was added to each well holding the cultured cells, and the plate was incubated at 37° C. under 5% CO2 for 72 hours (except that NCI-H1975 cells were incubated for 48 hours). After removing the medium from the plate, 50 μA of 10% trichloroacetic acid was added to each well, and the plate was kept at 4° C. for 1 hour to fix the cells to the bottom of the plate. The added 10% trichloroacetic acid solution was removed from each well, the plate was dried, 100 μA of an SRB (Sulforhodamine-B) dye solution at a concentration of 0.4% dissolved in 1% acetic acid was added thereto, and the resulting mixture was reacted for 10 mins at room temperature. After removing the dye solution, the plate was washed with water, and well dried. When the dye solution was not effectively removed by water, 1% acetic acid was used. 150 μA of 10 mM trisma base was added to each well, and the absorbance at 540 nm wavelength was determined with a microplate reader.

[2] = system: NCI-H1975 (EGFR L858R/T790M); test: Inhibition test for growth of cancer cell expressing EGFR (MTS), NCI-H1975; conditions: Homo sapiens, read-out: GI50 NCI-H1975 EGFR L858R/T790M
Procedure: as §1, §2, §3, §4

A431 (EGFR WT) = test: Inhibition test for growth of cancer cell expressing EGFR (SRB), A431; conditions: Homo sapiens, read-out: GI50 A431 EGFR WT;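 note: cells in 96-well plates exposed to tenfold serial dilutions from 100 µM down to 10^−6 µM, DMSO under 1%, SRB staining read as absorbance at 540 nm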
Procedure: as §1, §2, §3, §4

[3] = A-431, A431 cells, 72 hours, SRB

SMILES	GI50 ([1]; HCC827 cells, 72 hours, SRB)	GI50 ([2]; NCI-H1975 cells, 48 hours, MTS)	GI50 (A431 (EGFR WT); [3])	GI50 [1]	GI50 ([2]; NCI-H1975, 48 h)	GI50 (A431 (EGFR WT); A-431, 72 h)
C=CC(=O)Nc1cccc(Oc2nc(Nc3ccc(N4CC[S+]([O-])CC4)cc3)nc3ccsc23)c1 [Example 31]	< 50 nM	< 50 nM	> 1000 nM			
C=CC(=O)Nc1cccc(Oc2nc(Nc3ccc(C4CCN(C(C)C)CC4)cc3)nc3ccsc23)c1 [Example 54]	< 50 nM	< 50 nM	> 1000 nM			
C=CC(=O)Nc1cccc(Oc2nc(Nc3ccc(N4CCN(CC)CC4)cc3OC)nc3ccsc23)c1 [Example 112]	< 50 nM	< 50 nM	> 1000 nM			
C=CC(=O)Nc1cccc(Oc2nc(Nc3ccc(CP(=O)(OC)OC)cc3)nc3ccsc23)c1 [Example 189]				< 50 nM	< 50 nM	> 1000 nM
C=CC(=O)Nc1ccc(F)c(Nc2nc(Nc3ccc(N4CCN(C)CC4)cc3)nc3ccsc23)c1 [Example 218, N-(4-fluoro-3-(2-(4-(4-methyl-piperazin-1-yl)-phenylamino)-thieno[3,2-d]pyrimidin-4-ylamino)-phenyl)-acrylamide]	< 50 nM	50 to 100 nM	> 1000 nM			
C=CC(=O)Nc1cccc(Oc2nc(Nc3ccc(N4CCN(S(C)(=O)=O)CC4)c(F)c3)nc3ccsc23)c1 [Example 120]	< 50 nM	< 50 nM	> 1000 nM			
C=CC(=O)Nc1cccc(Oc2nc(Nc3ccc(N4CCNCC4)cc3)nc3ccsc23)c1 [Example 158, N-(3-(2-(4-(piperazin-1-yl)phenylamino)-thieno[3,2-d]pyrimidine-4-yloxy)-phenyl)-acrylamide]	< 50 nM	100 to 1000 nM	> 1000 nM			
C=CC(=O)Nc1cccc(Oc2nc(Nc3ccc(C(=O)N4CCN(CC)CC4)cc3)nc3ccsc23)c1 [Example 90]	< 50 nM	< 50 nM	> 1000 nM			
C=CC(=O)Nc1cccc(Oc2nc(Nc3ccc(N4CCS(=O)(=O)CC4)cc3)nc3ccsc23)c1 [Example 32]	< 50 nM	< 50 nM	> 1000 nM			
C=CC(=O)Nc1cccc(Oc2nc(Nc3ccc(N4CCCCC4)cc3)nc3ccsc23)c1 [Example 37]	100 to 1000 nM	< 50 nM	> 1000 nM			
C=CC(=O)Nc1cccc(Oc2nc(Nc3ccc(N4CCNCC4)c(Cl)c3)nc3ccsc23)c1 [Example 159]	< 50 nM	< 50 nM	> 1000 nM			
C=CC(=O)Nc1cccc(Oc2nc(Nc3ccc(N4CCN(S(C)(=O)=O)CC4)cc3)nc3ccsc23)c1 [Example 23]	50 to 100 nM	< 50 nM	> 1000 nM			
C=CC(=O)Nc1cccc(Oc2nc(Nc3ccc4c(c3)NCCOC4)nc3ccsc23)c1 [Example 107]	< 50 nM	< 50 nM	> 1000 nM			
C=CC(=O)Nc1cccc(Oc2nc(Nc3ccc(CCN4CCN(S(=O)(=O)C=C)CC4)cc3)nc3ccsc23)c1 [Example 100]	< 50 nM	< 50 nM	> 1000 nM			
C=CC(=O)Nc1cccc(Oc2nc(Nc3ccc(CN4CCN(CC5CC5)CC4)cc3)nc3ccsc23)c1 [Example 185]	< 50 nM	< 50 nM	> 1000 nM			
C=CC(=O)Nc1cccc(Oc2nc(Nc3ccc(CN4CCCCC4)cc3)nc3ccsc23)c1 [Example 178]	< 50 nM	< 50 nM	> 1000 nM			
C=CC(=O)Nc1cccc(Oc2nc(Nc3ccc(C(=O)NCCN4CCCC4)cc3)nc3ccsc23)c1 [Example 80]	< 50 nM	< 50 nM	> 1000 nM			
C=CC(=O)Nc1cccc(Oc2nc(Nc3ccc(N4CCN(C5CCN(C)CC5)CC4)cc3)nc3ccsc23)c1 [Example 26]	< 50 nM	< 50 nM	> 1000 nM			
C=CC(=O)Nc1cccc(Oc2nc(Nc3ccc(CN4CCCC4)cc3)nc3ccsc23)c1 [Example 176]	< 50 nM	< 50 nM	> 1000 nM			
C=CC(=O)Nc1cccc(Oc2nc(Nc3ccc(N4CCN(C)CC4)cc3F)nc3ccsc23)c1 [Example 4]	50 to 100 nM	50 to 100 nM	> 1000 nM			
C=CC(=O)Nc1cccc(Oc2nc(Nc3ccc(N4CCN(C5CCCCC5)CC4)cc3)nc3ccsc23)c1 [Example 13]	< 50 nM	< 50 nM	100 to 1000 nM			
C=CC(=O)Nc1cccc(Oc2nc(Nc3ccc(N4CCN(C)CC4)c(OC)c3)nc3ccoc23)c1 [Example 234]	< 50 nM	< 50 nM	> 1000 nM			
C=CC(=O)Nc1cccc(Oc2nc(Nc3ccc(C4CCN(C)CC4)cc3)nc3ccsc23)c1 [Example 52]	< 50 nM	< 50 nM	> 1000 nM			
C=CC(=O)Nc1cccc(Oc2nc(Nc3ccc(C(C)N4CCN(CC)CC4)cc3)nc3ccsc23)c1 (stereo not drawn) [Example 184]	< 50 nM	< 50 nM	> 1000 nM			
C=CC(=O)Nc1cccc(Oc2nc(Nc3ccc(N4CCN(C)CC4)cn3)nc3ccsc23)c1 [Example 167, N-(3-(2-(5-(4-methylpiperazin-1-yl)piridin-2-ylamino)thieno[3,2-d]pyrimidin-4-yloxy)phenyl)acrylamide]	< 50 nM	< 50 nM	> 1000 nM			

SMILES	GI50 ([1]; HCC827 cells, 72 hours, SRB)	GI50 ([2]; NCI-H1975 cells, 48 hours, MTS)	GI50 (A431 (EGFR WT); [3])	GI50 [1]	GI50 ([2]; NCI-H1975, 48 h)	GI50 (A431 (EGFR WT); A-431, 72 h)
C=CC(=O)Nc1cccc(Oc2nc(Nc3ccc(N4CCN(C)CC4)c(C)c3)nc3ccsc23)c1 [Example 8]	< 50 nM	< 50 nM	> 1000 nM			
C=CC(=O)Nc1cccc(Oc2nc(Nc3ccc(OCCN4CCOCC4)cc3)nc3ccsc23)c1 [Example 65]	< 50 nM	< 50 nM	> 1000 nM			
C=CC(=O)Nc1cccc(Oc2nc(Nc3ccc(S(=O)(=O)N4CCN(CC)CC4)cc3)nc3ccsc23)c1 [Example 76]	< 50 nM	50 to 100 nM	> 1000 nM			
C=CC(=O)Nc1cccc(Oc2nc(Nc3ccc(N4CCN(CC)CC4)cc3)nc3ccsc23)c1 [Example 10]	< 50 nM	< 50 nM	100 to 1000 nM			
C=CC(=O)Nc1cccc(Oc2nc(Nc3ccc(N4CCN(CC)CC4)cn3)nc3ccsc23)c1 [Example 168]	< 50 nM	< 50 nM	> 1000 nM			
C=CC(=O)Nc1cccc(Oc2nc(Nc3ccc4c(c3)CCN4C(=O)CN(C)C)nc3ccsc23)c1 [Example 109]	< 50 nM	< 50 nM	> 1000 nM			
CS(=O)(=O)CCNCc1ccc(-c2ccc3ncnc(Nc4ccc(OCc5cccc(F)c5)c(Cl)c4)c3c2)o1 [Lapatinib, lapatinib, reference compound]				100 to 1000 nM	> 1000 nM	50 to 100 nM
C=CC(=O)Nc1cccc(Oc2nc(Nc3ccc(N4CCSCC4)cc3)nc3ccsc23)c1 [Example 30]	100 to 1000 nM	< 50 nM	> 1000 nM			
C=CC(=O)Nc1cccc(Oc2nc(Nc3ccc(C4CCCN(C)C4)c(F)c3)nc3ccsc23)c1 (stereo not drawn) [Example 128]	< 50 nM	< 50 nM	> 1000 nM			
C=CC(=O)Nc1cccc(Oc2nc(Nc3ccc(CN4CCN(C5CCN(C)CC5)CC4)cc3)nc3ccsc23)c1 [Example 186]	< 50 nM	< 50 nM	> 1000 nM			
C=CC(=O)Nc1cccc(Oc2nc(Nc3ccc(N4CCN(C)CC4)c(F)c3OC)nc3ccsc23)c1 [Example 6]	50 to 100 nM	< 50 nM				
C=CC(=O)Nc1cccc(Oc2nc(Nc3ccc(C(C)=O)cc3)nc3ccsc23)c1 [Example 77]	< 50 nM	< 50 nM				
C=CC(=O)Nc1cccc(Oc2nc(Nc3ccc4c(ccn4C)c3)nc3ccsc23)c1 [Example 111]	50 to 100 nM	< 50 nM				
C=CC(=O)Nc1cccc(Oc2nc(Nc3ccc(CCN4CCCCC4)cc3)nc3ccsc23)c1 [Example 98]	< 50 nM	< 50 nM				
C=CC(=O)Nc1cccc(Oc2nc(Nc3ccc(/C=C/CN4CCCCC4)cc3)nc3ccsc23)c1 [Example 102]	< 50 nM	50 to 100 nM				
C=CC(=O)Nc1cccc(Oc2nc(Nc3ccc(CCS(C)(=O)=O)cc3)nc3ccsc23)c1 [Example 97]	50 to 100 nM	< 50 nM				
C=CC(=O)Nc1cccc(Oc2nc(Nc3ccc(C[S+](C)[O-])cc3)nc3ccsc23)c1 (stereo not drawn) [Example 94]	< 50 nM	< 50 nM	> 1000 nM			
C=CC(=O)Nc1cccc(Oc2nc(Nc3ccc(N4CCN(CCO)CC4)cn3)nc3ccsc23)c1 [Example 156]	< 50 nM	50 to 100 nM				
C=CC(=O)Nc1cccc(Nc2nc(Nc3ccc(CN4CCCCC4)cc3)nc3ccsc23)c1 [Example 221]	< 50 nM	< 50 nM				
C=CC(=O)Nc1cccc(Oc2nc(Nc3ccc(OCCN(CC)CC)c(F)c3)nc3ccsc23)c1 [Example 133]	< 50 nM	< 50 nM				
C=CC(=O)Nc1cccc(Oc2nc(Nc3ccc(C(=O)N(C)C)cc3)nc3ccsc23)c1 [Example 84]	50 to 100 nM	50 to 100 nM				
C=CC(=O)Nc1ccc(F)c(Oc2nc(Nc3ccc(N4CCN(C)CC4)cc3)nc3ccsc23)c1 [Example 165]	< 50 nM	< 50 nM	> 1000 nM			
C=CC(=O)Nc1cccc(Oc2nc(Nc3ccc(OCCN4CCOCC4)c(F)c3)nc3ccsc23)c1 [Example 135]	50 to 100 nM	< 50 nM				
C=CC(=O)Nc1cccc(Oc2nc(Nc3ccc(N4CCN(S(=O)(=O)CC)CC4)cc3)nc3ccsc23)c1 [Example 24]	< 50 nM	50 to 100 nM	> 1000 nM			
C=CC(=O)Nc1cccc(Oc2nc(Nc3ccc(N4CCC(n5ccnc5)CC4)cc3)nc3ccsc23)c1 [Example 46]	< 50 nM	< 50 nM				
